Laboratory results reported in publication PMC8372822, “A Concise Synthetic Strategy Towards the Novel Calcium-dependent Lipopeptide Antibiotic, Malacidin A and Analogues” (Frontiers in Chemistry, 2021).
Read-outs that look alike come from different tables or passages of the source. Positions of bridges follow the written chain, without caps; N, C: chain ends. Non-standard residues stand in square brackets, D forms with d. Residues, ends and D or L forms follow the SMILES beside them. *: point of attachment. Benzoyl(4-Ph) = O=C(c1ccc(-c2ccccc2)cc1)*; Decanoyl = CCCCCCCCCC(=O)*; Dap = NC[C@H](N)C(=O)O

What was measured:
[1] = Ca2+ binding capability by 1H NMR in the presence of CaCl2; details: 1a 5.6 mM in D2O, CaCl2 at 1.5 mM and 15 mM, 500 MHz, 298 K
Procedure: Despite these differences, it was observed that the lipid sp^2 proton signals closely matched that of the natural product and no peaks arising from cis-trans isomerization were observed, indicating the tolerance of acid-sensitive lipid 25 to the optimized TFA side chain deprotection conditions and HPLC purification protocols.
[picture] Figure S16. Overlay of ^1H NMR spectra of synthetic 1a (5.6 mM) recorded at 500 MHz, 298 K in D2O spiked with Et3N (1.88 mM) and CaCl2 of varying concentrations: 0 mM CaCl2 (bottom), 1.5 mM CaCl2 (middle), 15 mM CaCl2 (top).

[2] = test system: Staphylococcus aureus (ATCC 29213); assay type: cell-based
Procedure: MIC assays were performed in accordance with the CLSI recommended protocol^17 with minor adjustments. Briefly, Staphylococcus aureus (ATCC 29213) was grown at 37 °C with shaking (200 rpm) in Mueller Hinton (MH) broth supplemented with either 1.5 mM (near the concentration commonly employed for daptomycin testing [1.25 mM]) or 15 mM CaCl2 (in accordance with the reported testing of malacidin by Hover et al.^1) from an autoclaved stock solution of CaCl2. The respective Ca^2+ adjusted media was used for all further compound and culture dilutions. A two-fold dilution series of the test compounds was prepared in triplicate in polypropylene 96-well plates. Cultures of bacteria grown for 8 h were diluted accordingly in fresh media before adding 50 µL of inoculum to each well of the MIC plate, to achieve a final volume of 100 µL with a uniform CFU/ml of ~5 x10^5 in each well. A growth control (untreated) and sterility control (non-inoculated) well were included for each test compound replicate. Plates were incubated at 37 °C with shaking for 18 h before determining the MIC by visual inspection. MIC values were determined as the lowest concentration at which no growth was observed consistently across all three biological replicates of the assay and within triplicates of each test compound.
Table S2. MIC values of diastereomer 1a at different CaCl2 concentrations.

[3] = test system: Staphylococcus aureus ATCC 6538; assay: microbe, parasite or virus in culture; assay type: cell-based; details: for MIC: S. aureus ATCC 6538, CAMHB, in presence of 50 mg L^-1 of CaCl2, 37 °C, 18 to 24 h, biological triplicate, maximum concentration 128 µg mL^-1
Procedure: Antimicrobial susceptibility testing was performed in biological triplicate by determining the minimum inhibitory concentrations (MIC) of the six malacidin analogues and the control antibiotics, penicillin G and daptomycin. Malacidin analogues 31, 36, 39, and 40 were prepared as 10 mg mL^-1 stock solutions in filter sterilised MilliQ water. Compounds 37, and 38 were prepared as 5 mg mL^-1 stock solutions in filter sterilised MilliQ water. Malacidin analogues were tested at a maximum concentration of 128 µg mL^-1. Bacterial inoculums of Staphylococcus aureus ATCC 6538 were prepared by diluting an overnight culture to a final optical density 600 nm (OD600) of 0.003 in cation adjusted Mueller Hinton broth (CAMH) to yield 5 × 10^5 CFU mL^-1 (final) in all assays. MIC assays were performed in 96-well microtiter plates in a total volume of 100 µL, and compounds were serially diluted across the plate in 2-fold dilutions. The MIC was reported as the lowest concentration of the test compound for which no growth occurred after incubation at 37 °C for 18 to 24 h. For all MIC testing CAMHB was supplemented with calcium (50 mg L^-1 final) as per the CLSI guidelines for daptomycin^17
Table S3. MIC values of simplified analogues 31, 36-40 in presence of 50 mg L^-1 of CaCl2.^aTesting was additionally performed in the absence of CaCl2 and no activity for any of the malacidin analogues was observed against S. aureus.

[4] = test system: methicillin-resistant Staphylococcus aureus (MRSA), MRSA USA300; details: ref Hover et al., 2018, cited from earlier work
Text: In 2018, Brady et al. reported the isolation of malacidin A (1) as part of an extensive metagenomic mining study of bacterial DNA obtained from soil samples in search of novel bioactive natural products ([Owen et al., 2013]; [Hover et al., 2018]). […] Malacidin ... || FIGURE 1 Structure of malacidin A (1); non-canonical amino acids and the lipid tail are highlighted in purple; the undefined stereochemistry of β-carbon centers is indicated with an asterisk; the calcium-binding region residues are specified in red; the macrolactam bond is highlighted with blue shading. The stereochemistry and MIC values of the isolated malacidin A (1) ([Hover et al., 2018]) and synthesized diastereomers [this work 1a, the Li group 1b–1e ([Sun et al., 2020])] are shown above; X in 1 represents undefined stereochemistry. TEXT PRINTED IN THE PICTURE: Malacidin A (1): MIC (μg mL^ ...

[5] = cited from earlier work
Text: (§1) In 2018, Brady et al. reported the isolation of malacidin A (1) as part of an extensive metagenomic mining study of bacterial DNA obtained from soil samples in search of novel bioactive natural products ([Owen et al., 2013]; [Hover et al., 2018]). […] Malacidin ...

S. aureus = details: after repeated exposure to S. aureus; ref Hover et al., 2018; cited from earlier work
Text: as §1

[6] = test system: vancomycin-resistant Enterococcus faecium (VRE); details: ref Hover et al., 2018; cited from earlier work
Text: as §1

[7] = ref Hover et al., 2018; cited from earlier work
Text: Evaluation of the antibacterial activity of the synthesized analogues 1a, 31 and 36–40 was then undertaken.

CC(C)CC/C=C\C=C\C(=O)N[C@H](C(=O)N[C@@H]1C(=O)N[C@H](C(C)C)C(=O)N[C@@H](CCCCN)C(=O)N[C@@H]([C@H](O)C(=O)O)C(=O)N[C@@H](CC(=O)O)C(=O)NCC(=O)N[C@H]([C@@H](C)C(=O)O)C(=O)N[C@@H](C(C)C)C(=O)N2C[C@H](C)C[C@H]2C(=O)N[C@H]1C)[C@H](C)C(=O)O [1a]
interaction with Ca^2+ ions (signal shifts or line broadening in 1H NMR) [1]: fails to interact with Ca^2+ ions
activity toward S. aureus ([2]; 15 mM CaCl2 (Supplementary Table S2)): no activity
MIC ([2]; S.aureus strain: ATCC 29213, Figure 1, this work): > 64 mg/L
activity toward S. aureus ([2]; media supplemented with 1.25–1.5 mM CaCl2 (Supplementary Table S2)): no activity

CC1(C)S[C@@H]2[C@H](NC(=O)Cc3ccccc3)C(=O)N2[C@H]1C(=O)O [Penicillin G, penicillin G]
MIC ([3]; Staphylococcus aureus, ATCC6538, read-out: MIC): 0.0312 mg/L

CCCCCCCCCC(=O)N[C@@H](CC(=O)O)C(=O)N[C@H]1CNC(=O)[C@@H]2CCCN2C(=O)[C@H](C(C)C)NC(=O)[C@@H](CC(=O)O)NC(=O)CNC(=O)[C@H](CC(=O)O)NC(=O)[C@H](CC(=O)O)NC(=O)[C@H](CCCCN)NC(=O)[C@@H](C(C)C)NC1=O [compound 31] (Decanoyl-D[Dap][dV]KDDG[dD]VP; lactam 2-C)
activity toward S. aureus ([3]; media supplemented with 1.25–1.5 mM CaCl2 (Supplementary Table S3)): no activity

CC(C)[C@@H]1NC(=O)[C@@H](CC(=O)O)NC(=O)CNC(=O)[C@H](CC(=O)O)NC(=O)[C@H](CC(=O)O)NC(=O)[C@H](CCCCN)NC(=O)[C@@H](C(C)C)NC(=O)[C@@H](NC(=O)[C@H](CC(=O)O)NC(=O)c2ccc(-c3ccccc3)cc2)CNC(=O)[C@@H]2CCCN2C1=O [compound 40] ({Benzoyl(4-Ph)}-D[Dap][dV]KDDG[dD]VP; lactam 2-C)
MIC [3]: >128 >128 µg/mL

malacidin A
MIC ([4]; MRSA): 0.2 to 0.8 mg/L
MIC ([4]; S.aureus strain: MRSA USA300, Figure 1): 0.2 to 0.8 mg/L
cytotoxicity [5]: non-cytotoxic
molecular target bound ([5]; preliminary mechanistic studies, ref Hover et al., 2018): binding to lipid II
induction of resistance (S. aureus): did not induce resistance
MIC [6]: 0.8 to 2.0 mg/L
CaCl2 concentration of maximum activity [7]: 15 mM
